From the NIST ThermoML archive (doi:10.1016/j.fluid.2018.08.001)
± gives the expanded uncertainty stated by the source.

Conditions: 303.15 K, 101.33 kPa, Liquid; for viscosity: Capillary tube (Ostwald / Ubbelohde) method; for speed of sound: Linear variable-path acoustic interferometer; for mass density: Pycnometric method

viscosity [mPa·s]	speed of sound [m/s]	mass density [kg/m3]	Structure (SMILES)
1.08 ± 0.04	1321 ± 1.9	1022.4 ± 1.1	C1COCCO1 [1,4-dioxane]
1.43 ± 0.04	1538.2 ± 2.1	975.6 ± 1.1	NCc1ccccc1 [benzylamine]
0.36 ± 0.04	1051.2 ± 1.9	652.9 ± 1	CCCCCC [hexane]
0.46 ± 0.04	1252.2 ± 1.9	876.5 ± 1.1	C1CCOC1 [tetrahydrofuran]
